Several values for one entry are separate records, joined by “and”; a condition that tells them apart may be missing. Equal values may be shown once. Values belong to the compound of their own block, whether it stands above or below them. Activity calls are given as the source filed them.
Columns and labels:
[1] = target: CAAX prenyl protease 2 (Saccharomyces cerevisiae S288c, UniProt Q03530); type: biochemical
[2] = target: CAAX prenyl protease 2 (Homo sapiens, UniProt Q9Y256); assay: inhibition of Ras-converting CAAX protease Rce1 – biochemical, yeast membranes, quenched-peptide fluorescence, cherry-pick, dose response (AID 588849)
CAAX prenyl protease 2 (Homo sapiens, UniProt Q9Y256), sequence (Q9Y256 whole entry): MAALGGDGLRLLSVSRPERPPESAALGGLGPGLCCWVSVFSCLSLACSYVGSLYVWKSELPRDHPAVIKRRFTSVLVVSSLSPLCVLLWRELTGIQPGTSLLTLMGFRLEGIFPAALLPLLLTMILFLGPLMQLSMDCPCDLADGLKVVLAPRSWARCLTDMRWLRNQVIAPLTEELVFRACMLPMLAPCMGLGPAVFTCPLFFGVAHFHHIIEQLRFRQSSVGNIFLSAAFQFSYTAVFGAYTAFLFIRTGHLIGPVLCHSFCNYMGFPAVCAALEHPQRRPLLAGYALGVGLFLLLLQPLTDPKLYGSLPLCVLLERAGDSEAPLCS

[3] = target: T1, Eukaryotic translation initiation factor 2-alpha kinase 3 (Homo sapiens, UniProt Q9NZJ5); assay: Dose response cell-based high-throughput screening assay to measure PERK inhibition. [Related pubchem assays: 1416 ]; type: functional
T1 sequence (Q9NZJ5 whole entry): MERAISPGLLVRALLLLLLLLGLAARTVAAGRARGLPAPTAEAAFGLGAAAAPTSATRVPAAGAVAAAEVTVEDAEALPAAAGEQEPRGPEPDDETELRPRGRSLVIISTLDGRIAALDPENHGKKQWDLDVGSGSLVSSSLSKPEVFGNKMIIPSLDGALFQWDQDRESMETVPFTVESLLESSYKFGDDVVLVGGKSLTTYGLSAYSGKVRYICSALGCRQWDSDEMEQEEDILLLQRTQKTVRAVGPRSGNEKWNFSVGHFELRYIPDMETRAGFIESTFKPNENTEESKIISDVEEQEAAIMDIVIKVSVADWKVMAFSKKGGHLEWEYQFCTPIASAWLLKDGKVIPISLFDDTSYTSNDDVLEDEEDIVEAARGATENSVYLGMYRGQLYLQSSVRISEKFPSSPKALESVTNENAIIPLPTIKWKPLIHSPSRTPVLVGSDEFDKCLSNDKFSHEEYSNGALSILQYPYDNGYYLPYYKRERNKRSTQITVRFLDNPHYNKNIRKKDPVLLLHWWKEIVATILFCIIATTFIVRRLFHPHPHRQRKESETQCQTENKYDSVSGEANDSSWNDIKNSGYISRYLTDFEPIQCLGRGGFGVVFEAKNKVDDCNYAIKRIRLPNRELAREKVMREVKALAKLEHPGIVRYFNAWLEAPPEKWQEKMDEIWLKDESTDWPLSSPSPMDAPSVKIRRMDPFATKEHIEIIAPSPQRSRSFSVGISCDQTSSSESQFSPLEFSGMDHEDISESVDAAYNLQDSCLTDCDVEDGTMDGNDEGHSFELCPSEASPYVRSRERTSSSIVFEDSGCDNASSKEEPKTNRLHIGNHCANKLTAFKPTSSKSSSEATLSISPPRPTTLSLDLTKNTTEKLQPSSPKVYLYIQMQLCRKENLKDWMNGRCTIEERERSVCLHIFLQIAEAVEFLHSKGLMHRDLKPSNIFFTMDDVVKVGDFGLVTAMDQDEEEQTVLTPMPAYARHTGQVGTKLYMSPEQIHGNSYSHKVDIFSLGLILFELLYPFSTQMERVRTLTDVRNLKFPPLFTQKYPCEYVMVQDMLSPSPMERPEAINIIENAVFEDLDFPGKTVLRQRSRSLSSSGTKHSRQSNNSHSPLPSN

[4] = target: T1, Eukaryotic translation initiation factor 2-alpha kinase 3; assay: Counterscreen assay for PERK inhibitors: Dose response cell-based high throughput screening assay to measure inhibition of PERK at 6 hours. [Related pubchem assays: 1522, 1416 ]; type: functional
[5] = protection from phage-mediated lysis, alamar blue read-out – E. coli UTI89, K1F phage, bacterial capsule biogenesis inhibitors (AID 488966); type: functional
[6] = Luminescence Cell-Based Dose Retest to Confirm Inhibitors of Cancer Stem Cells. [Related pubchem assays (depositor defined):AID2717, AID2721]; type: functional; conditions: Homo sapiens
[7] = target: C-C chemokine receptor type 6 (Homo sapiens, UniProt P51684); assay: antagonism of CCR6 beta-arrestin recruitment – cell-based, luminescent beta-arrestin readout, dose response (AID 504728); type: functional
C-C chemokine receptor type 6, sequence (P51684 whole entry): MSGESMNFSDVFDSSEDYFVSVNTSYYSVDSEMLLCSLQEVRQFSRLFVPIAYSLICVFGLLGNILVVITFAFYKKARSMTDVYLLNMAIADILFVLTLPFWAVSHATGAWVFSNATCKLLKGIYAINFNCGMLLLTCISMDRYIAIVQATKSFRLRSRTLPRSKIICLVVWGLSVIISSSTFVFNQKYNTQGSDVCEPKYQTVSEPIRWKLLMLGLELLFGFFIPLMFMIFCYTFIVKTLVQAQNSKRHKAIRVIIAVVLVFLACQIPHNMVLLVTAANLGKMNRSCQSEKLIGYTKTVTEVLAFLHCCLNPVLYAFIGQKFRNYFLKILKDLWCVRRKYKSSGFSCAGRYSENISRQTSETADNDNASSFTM

[8] = target: Beta-galactosidase (Escherichia coli, UniProt Q8VNN2); assay: detection-enzyme interference by beta-gal modulators – biochemical, E. coli enzyme, set 3, artefact control for CCR6 antagonist project, dose response (AID 504712); type: functional
[9] = target: Cytochrome P450 2D6 (Homo sapiens, UniProt P10635); assay: qHTS Assay for Inhibitors and Substrates of Cytochrome P450 2D6. [Related pubchem assays: 410 ]; type: ADME; conditions: read-out: Potency
Cytochrome P450 2D6, sequence (P10635 whole entry): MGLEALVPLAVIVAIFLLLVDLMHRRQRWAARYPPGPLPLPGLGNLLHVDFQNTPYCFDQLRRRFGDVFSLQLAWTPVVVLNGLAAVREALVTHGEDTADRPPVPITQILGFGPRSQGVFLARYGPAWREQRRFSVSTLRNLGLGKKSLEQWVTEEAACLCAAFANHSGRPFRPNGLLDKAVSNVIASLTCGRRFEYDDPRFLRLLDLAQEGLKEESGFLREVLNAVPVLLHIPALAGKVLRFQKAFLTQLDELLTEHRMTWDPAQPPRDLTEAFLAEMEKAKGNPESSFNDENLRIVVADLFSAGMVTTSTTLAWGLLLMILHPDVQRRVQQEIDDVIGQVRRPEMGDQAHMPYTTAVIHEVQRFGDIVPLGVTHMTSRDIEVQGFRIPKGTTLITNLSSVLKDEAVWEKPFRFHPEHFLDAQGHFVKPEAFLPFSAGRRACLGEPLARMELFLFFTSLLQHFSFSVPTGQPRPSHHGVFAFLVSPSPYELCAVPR

[10] = target: Cytochrome P450 2C9 (Homo sapiens, UniProt P11712); conditions: Potency
Cytochrome P450 2C9, sequence (P11712 whole entry): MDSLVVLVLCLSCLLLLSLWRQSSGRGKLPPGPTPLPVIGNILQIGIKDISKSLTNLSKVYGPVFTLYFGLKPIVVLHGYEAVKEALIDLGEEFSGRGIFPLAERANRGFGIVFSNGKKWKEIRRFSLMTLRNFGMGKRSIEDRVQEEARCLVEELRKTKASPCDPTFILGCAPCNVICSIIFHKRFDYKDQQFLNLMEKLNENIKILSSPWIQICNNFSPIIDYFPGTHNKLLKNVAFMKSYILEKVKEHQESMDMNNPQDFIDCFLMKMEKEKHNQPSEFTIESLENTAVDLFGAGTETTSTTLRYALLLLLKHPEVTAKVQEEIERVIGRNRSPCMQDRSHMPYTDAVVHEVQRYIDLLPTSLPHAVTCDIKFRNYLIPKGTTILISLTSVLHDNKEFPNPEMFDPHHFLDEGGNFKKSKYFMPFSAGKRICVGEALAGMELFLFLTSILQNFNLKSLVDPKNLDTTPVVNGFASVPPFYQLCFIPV

[11] = target: T2, Mannose-6-phosphate isomerase (Homo sapiens, UniProt P34949); assay: phosphomannose isomerase inhibition – biochemical, fluorescence intensity, confirmation (AID 1535)
T2 sequence (P34949 whole entry): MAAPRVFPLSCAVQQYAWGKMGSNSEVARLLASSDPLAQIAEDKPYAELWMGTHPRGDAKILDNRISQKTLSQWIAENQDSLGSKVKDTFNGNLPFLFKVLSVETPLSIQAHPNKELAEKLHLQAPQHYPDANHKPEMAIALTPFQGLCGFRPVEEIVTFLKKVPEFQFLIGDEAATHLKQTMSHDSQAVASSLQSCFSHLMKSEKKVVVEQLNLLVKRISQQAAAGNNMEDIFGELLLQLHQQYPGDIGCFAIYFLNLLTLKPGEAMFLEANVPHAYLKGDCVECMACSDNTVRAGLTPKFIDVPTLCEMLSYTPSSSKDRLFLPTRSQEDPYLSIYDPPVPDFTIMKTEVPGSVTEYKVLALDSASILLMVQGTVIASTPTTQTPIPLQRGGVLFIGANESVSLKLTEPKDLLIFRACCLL

[12] = target: Phosphomannomutase 2 (Homo sapiens, UniProt O15305); assay: Counter screen SAR assay for PMM2 inhibitors via a fluorescence intensity assay. [Related pubchem assays (depositor defined):AID1545, AID1574]
Phosphomannomutase 2, sequence (O15305 whole entry): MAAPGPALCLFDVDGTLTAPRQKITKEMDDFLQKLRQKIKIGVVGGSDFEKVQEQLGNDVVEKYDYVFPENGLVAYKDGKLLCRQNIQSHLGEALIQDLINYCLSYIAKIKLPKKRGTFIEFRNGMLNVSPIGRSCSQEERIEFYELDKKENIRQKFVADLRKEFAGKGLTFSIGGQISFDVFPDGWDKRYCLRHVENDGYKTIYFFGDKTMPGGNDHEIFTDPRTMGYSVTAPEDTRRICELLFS

[13] = target: Phosphoethanolamine/phosphocholine phosphatase (Homo sapiens, UniProt Q8TCT1); assay: SAR assay for compounds that inhibit PHOSPHO1. [Related pubchem assays (depositor defined):AID1545, AID1565, AID1574]
Phosphoethanolamine/phosphocholine phosphatase, sequence (Q8TCT1 whole entry): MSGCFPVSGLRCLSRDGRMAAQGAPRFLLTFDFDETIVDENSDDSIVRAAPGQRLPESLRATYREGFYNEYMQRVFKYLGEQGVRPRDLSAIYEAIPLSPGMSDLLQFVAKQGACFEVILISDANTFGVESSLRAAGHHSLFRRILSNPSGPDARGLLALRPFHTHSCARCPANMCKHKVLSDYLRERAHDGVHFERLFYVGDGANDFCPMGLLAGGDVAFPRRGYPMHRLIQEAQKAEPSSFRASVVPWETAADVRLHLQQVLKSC

[14] = target: T2, Mannose-6-phosphate isomerase; assay: Confirmation of compounds inhibiting phosphomannose isomerase (PMI) via a fluorescence intensity assay using a high concentration of mannose 6-phosphate. [Related pubchem assays (depositor defined):AID1209, AID1220, AID1545, AID1553, AID1620]
[15] = target: Alkaline phosphatase, placental type (Homo sapiens, UniProt P05187); assay: human placental alkaline phosphatase inhibition – biochemical, luminescence, confirmation (AID 1512); type: functional
Alkaline phosphatase, placental type, sequence (P05187 whole entry): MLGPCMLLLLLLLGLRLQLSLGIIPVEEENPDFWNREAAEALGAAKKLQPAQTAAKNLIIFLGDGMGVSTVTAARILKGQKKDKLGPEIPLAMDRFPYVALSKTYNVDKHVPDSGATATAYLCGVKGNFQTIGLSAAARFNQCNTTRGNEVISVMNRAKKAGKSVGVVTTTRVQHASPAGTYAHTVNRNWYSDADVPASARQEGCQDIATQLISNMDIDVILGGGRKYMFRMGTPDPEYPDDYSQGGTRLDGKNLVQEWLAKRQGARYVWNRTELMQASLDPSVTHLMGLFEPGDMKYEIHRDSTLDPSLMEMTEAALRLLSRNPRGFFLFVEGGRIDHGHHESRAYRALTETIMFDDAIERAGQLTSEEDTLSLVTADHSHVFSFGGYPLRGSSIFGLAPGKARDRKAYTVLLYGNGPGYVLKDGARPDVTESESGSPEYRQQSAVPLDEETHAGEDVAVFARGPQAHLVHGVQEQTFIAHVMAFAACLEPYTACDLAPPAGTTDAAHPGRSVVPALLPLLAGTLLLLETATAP

CAAX prenyl protease 2 (Saccharomyces cerevisiae S288c, UniProt Q03530), sequence (Q03530 whole entry): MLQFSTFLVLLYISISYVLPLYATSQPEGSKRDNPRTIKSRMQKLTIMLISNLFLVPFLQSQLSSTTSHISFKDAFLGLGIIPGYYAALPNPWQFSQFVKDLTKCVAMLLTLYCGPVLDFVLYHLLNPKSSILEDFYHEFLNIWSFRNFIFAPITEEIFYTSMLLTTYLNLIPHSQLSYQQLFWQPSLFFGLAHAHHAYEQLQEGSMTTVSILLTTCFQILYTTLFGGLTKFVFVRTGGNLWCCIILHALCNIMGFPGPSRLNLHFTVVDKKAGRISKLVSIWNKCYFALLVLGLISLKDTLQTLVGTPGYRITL

AC50 [1]: 35.7 µM (active)
AC50 [2]: 35.2 µM (active)
Compound: Cc1cc(C)nc(SCc2cn3c(C)cc(C)nc3n2)n1

EC50 [3]: > 55.7 µM (not active)
EC50 [4]: > 55.7 µM (not active)
Compound: Cc1cc2c(NC(=O)Nc3ccc(F)cc3)cccc2nn1

Compound: Cc1nc(NC(=O)c2ccco2)sc1C(=O)Nc1ccc(Br)cc1
IC50 [5]: > 75 µM (active)

Compound: C=C(CC[C@@H](O)C(C)(C)O)[C@H]1CC[C@]2(C)[C@@H]1CC[C@@H]1[C@@]3(C)CC[C@H](O)C(C)(C)C3CC[C@]12C (stereo partly specified)
AC50 [6]: 0.561 µM (active)
IC50 [7]: > 66.6 µM (inactive)
IC50 [8]: > 66.6 µM (inactive)

AC50 [10]: 15.8 µM (inconclusive)
Compound: COC(=O)[C@@H]1[C@H]2C[C@H]3c4[nH]c5cc(OC)ccc5c4CCN3C[C@@H]2C[C@@H](OC(=O)c2cc(OC)c(OC)c(OC)c2)[C@@H]1OC
AC50 [9]: 39.8 µM (inconclusive) and 12.6 µM (inconclusive)

IC50 [11]: 28.6 µM (active)
IC50 [12]: 8.74 µM (active)
IC50 [13]: 1.53 µM (inactive)
Compound: Cc1c(Cl)cccc1-n1sc2cc(F)ccc2c1=O

IC50 [14]: > 100 µM (inactive)
IC50 [11]: > 100 µM (inactive)
IC50 [15]: > 100 µM (inactive)
Compound: CCCCN1C(=O)/C(=N\Nc2ccccc2O)c2ccccc21

— ChEMBL document CHEMBL1201862, “PubChem BioAssay data set” (2004)
